From US11814364B2, “Pyridine N-oxide derivatives useful as factor XIa inhibitors” (Janssen Pharmaceutica NV, priority 2021, dated 2023)

These molecules were tested against human plasma kallikrein (Homo sapiens, UniProt P03952) (assay: Kallikrein inhibition FLINT assay with quenched AMC peptide substrate Z-Gly-Pro-Arg-AMC (end point EP or kinetic KIN reads)). Conditions: kinetic reads at 5 min intervals over 30 min; read-out: Kallikrein (KIN) IC50.
Type: biochemical
Experimental: A fluorescence intensity (FLINT) based assay was used to monitor inhibition of human plasma kallikrein.
The Kallikrein FLINT assay was used with the following Z-Gly-Pro-Arg-AMC assay buffer: 50 mM Tris, pH 7.5, 100 mM NaCl, 5 mM CaCl2, 0.1 mg/mL BSA, 0.03% CHAPS. Assay buffer was prepared by mixing all ingredients fresh. 2× Z-Gly-Pro-Arg-AMC peptide substrate was prepared by diluting 10 mM stock into 1× assay buffer for a 100 μM working concentration (50 μM final concentration).
Test compound(s) were run in an 11-point, 3-fold serial dilution with a final top compound concentration of 1 μM. Final DMSO in assay was 2%. Plasma kallikrein was pre-incubated for 30-minute with compound and then 50 μM substrate was added to initiate the reaction. The assay was run with either end point (EP) reads at 30 min or kinetic (KIN) reads at 5 min intervals over 30 minutes.
Percent inhibition (IC50) curves were generated per compound tested, and data was analyzed using a 4-parameter logistic fit using GeneData Screener. The relative fluorescence unit (RFU) values were normalized to percent inhibition using the following equation: % inhibition=((HC−LC)−(compound−LC)/(HC−LC))*100
An 11-point dose response curve for the test compound(s) was generated using GENDATA to determine IC50 value based on the following equation: Y=Bottom+(Top−Bottom)/(1+10^((log IC50−X)*HillSlope))
Results listed in columns with […] designation were measured using endpoint reads where a single fluorescence reading was measured for each well at a 30 min timepoint.

Sequence of human plasma kallikrein (P03952 391-638 limits assumed): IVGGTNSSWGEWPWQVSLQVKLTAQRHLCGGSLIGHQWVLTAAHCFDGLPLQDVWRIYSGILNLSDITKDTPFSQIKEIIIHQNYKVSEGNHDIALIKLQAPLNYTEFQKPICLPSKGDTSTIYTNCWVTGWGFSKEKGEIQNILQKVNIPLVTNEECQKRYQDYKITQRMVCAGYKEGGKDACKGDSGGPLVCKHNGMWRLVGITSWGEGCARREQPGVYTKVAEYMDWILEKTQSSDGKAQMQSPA
Sequence of human plasma kallikrein (P03952 20-390 partner limits assumed): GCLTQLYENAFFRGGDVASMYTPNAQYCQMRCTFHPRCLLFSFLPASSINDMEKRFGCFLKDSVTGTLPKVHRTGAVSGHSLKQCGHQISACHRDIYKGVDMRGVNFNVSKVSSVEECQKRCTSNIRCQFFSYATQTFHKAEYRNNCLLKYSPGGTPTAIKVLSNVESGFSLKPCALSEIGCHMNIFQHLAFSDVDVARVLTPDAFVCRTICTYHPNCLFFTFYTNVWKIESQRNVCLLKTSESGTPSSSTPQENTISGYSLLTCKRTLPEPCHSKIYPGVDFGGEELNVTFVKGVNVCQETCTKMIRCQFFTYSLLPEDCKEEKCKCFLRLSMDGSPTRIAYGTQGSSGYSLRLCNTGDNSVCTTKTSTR

Row | IC50 [µM] | SMILES
1 | 0.0053 | [O-][n+]1cc(-c2c(-n3cnnn3)ccc(Cl)c2F)ccc1C(Cn1cccn1)n1cc(-c2ccnc(C(F)(F)F)c2)cn1 (single isomer, unassigned) [Example P513]
2 | 0.0483 | [O-][n+]1cc(-c2c(-n3cc(C(F)(F)F)nn3)ccc(Cl)c2F)ccc1C(Cc1ccn(C(F)F)n1)n1cc(-c2ncnn2C(F)F)cn1 (single isomer, unassigned) [Example P837]
3 | 0.003 | Nc1ccc(-c2cnn(C(Cn3cccn3)c3ccc(-c4c(-n5cnnn5)ccc(Cl)c4F)c[n+]3[O-])c2)c(F)n1 (stereo not drawn) [Example P256]
4 | 0.0049 | O=C(O)c1ccc(-c2cnn(C(Cc3ccn(C(F)F)n3)c3ccc(-c4c(C(F)F)ccc(Cl)c4F)c[n+]3[O-])c2)cc1 (single isomer, unassigned) [Example Q71]
5 | 0.0145 | NC(=O)c1ccc(-c2cnn(C(CC3CC3)c3ccc(-c4c(-n5cnnn5)ccc(Cl)c4F)c[n+]3[O-])c2)cc1F (single isomer, unassigned) [Example P947]
6 | 1.29 | COC(=O)Nc1ccc(-c2cnn(C(CC(C)OC)c3ccc(-c4c(-n5cnnn5)ccc(Cl)c4F)c[n+]3[O-])c2)cc1 (single isomer, unassigned) [Example P228]
7 | 0.0807 | Cn1nncc1-c1cnn([C@H](CCOC(F)F)c2ccc(-c3c(N)ccc(Cl)c3F)c[n+]2[O-])c1 [Example Q44]
8 | 0.0519 | O=C(O)c1ccc(-c2cnn(C(CC3CC3c3ccc(-c4ccccc4)cc3)c3ccc(-c4cc(Cl)ccc4-n4cnnn4)c[n+]3[O-])c2)cc1 (stereo not drawn) [Example P61]
9 | 0.0451 | CCCC(c1ccc(-c2c(-n3cnnn3)ccc(Cl)c2F)c[n+]1[O-])n1cc(-c2ccc(NC(=O)OC)cc2)cn1 (single isomer, unassigned) [Example P158]
10 | 0.0041 | COc1cc(C(CC2CC2)n2cc(-c3ccc(N)nc3F)cn2)[n+]([O-])cc1-c1c(-n2cnnn2)ccc(Cl)c1F (stereo not drawn) [Example P85]
11 | 0.0037 | Cn1ccc(C[C@H](c2ccc(-c3c(-n4cc(C(F)(F)F)nn4)ccc(Cl)c3F)c[n+]2[O-])n2cc(-c3ccc(C(=O)O)cc3)cn2)n1 [Example P855]
12 | 0.027 | NC(=O)c1ccc(-c2cnn(C(Cc3ccn(C(F)F)n3)c3ccc(-c4c(-n5cnnn5)ccc(Cl)c4F)c[n+]3[O-])c2)cc1F (single isomer, unassigned) [Example P932]
13 | 0.613 | N#Cc1cnn(CC(c2ccc(-c3c(-n4cc(C(F)(F)F)nn4)ccc(Cl)c3F)c[n+]2[O-])n2cc(-c3ccc(C(N)=O)c(F)c3)cn2)c1 (stereo not drawn) [Example P955]
14 | 0.0043 | Cc1nc(N)ccc1-c1cnn(C(CCOC(F)F)c2ccc(-c3c(-n4cnnn4)ccc(Cl)c3F)c[n+]2[O-])c1 (stereo not drawn) [Example P342]
15 | 0.532 | CC(C)(O)C[C@H](c1ccc(-c2c(-n3cnnn3)ccc(Cl)c2F)c[n+]1[O-])n1cc(-c2ccnn2C(F)F)cn1 [Example P648]
16 | 0.0193 | CC(C)c1cc(-c2cnn(C(Cn3cc(F)cn3)c3ccc(-c4c(-n5cnnn5)ccc(Cl)c4F)c[n+]3[O-])c2)cc[n+]1[O-] (single isomer, unassigned) [Example P413]
17 | 0.0145 | [O-][n+]1cc(-c2c(-n3cnnn3)ccc(Cl)c2F)ccc1C(Cn1cc(F)cn1)n1cc(-c2ccnn2C(F)F)cn1 (single isomer, unassigned) [Example P644]
18 | 0.0092 | [O-][n+]1cc(-c2c(-n3cnnn3)ccc(Cl)c2F)ccc1C(Cn1cccn1)n1cc(-c2ccnc(F)c2)cn1 (stereo not drawn) [Example P309]
19 | 0.0841 | Cn1ncnc1-c1cnn(C(CCOC(F)F)c2ccc(-c3c(-n4cc(OC(F)F)nn4)ccc(Cl)c3F)c[n+]2[O-])c1 (stereo not drawn) [Example P801]
20 | 0.0881 | Cn1nccc1-c1cnn(C(Cn2cc(F)cn2)c2ccc(-c3c(C(F)F)ccc(Cl)c3F)c[n+]2[O-])c1 (stereo not drawn) [Example Q30]
21 | 0.0134 | NC(=O)c1scc(-c2cnn(C(CC3CC3)c3ccc(-c4c(-n5cnnn5)ccc(Cl)c4F)c[n+]3[O-])c2)c1F (single isomer, unassigned) [Example P953]
22 | 0.17 | [O-][n+]1cc(-c2c(-n3cnnn3)ccc(Cl)c2F)ccc1C(CCOC(F)F)n1cc(-c2cn(C(F)F)nn2)cn1 (single isomer, unassigned) [Example P659]
23 | 0.105 | CN1CCN(CC(c2ccc(-c3c(-n4cnnn4)ccc(Cl)c3F)c[n+]2[O-])n2cc(-c3ccnc(C(F)(F)F)c3)cn2)C1=O (single isomer, unassigned) [Example P433]
24 | 0.0216 | Nc1ccc(-c2cnn(C(CC3CC3)c3ccc(-c4c(-n5cnnn5)ccc(Cl)c4F)c[n+]3[O-])c2)c(Cl)n1 (single isomer, unassigned) [Example P178]

Row | IC50 [µM] | SMILES
25 | 0.174 | COCC[C@H](c1ccc(-c2c(-n3cnnn3)ccc(Cl)c2F)c[n+]1[O-])n1cc(-c2cnc(C(F)F)s2)cn1 [Example P531]
26 | 0.287 | [O-][n+]1cc(-c2c(-n3cnnn3)ccc(Cl)c2F)ccc1C(CCOC(F)F)n1cc(-c2cn(C(F)F)nn2)cn1 (single isomer, unassigned) [Example P660]
27 | 0.0684 | CC(=O)N(C)CC(c1ccc(-c2c(-n3cnnn3)ccc(Cl)c2F)c[n+]1[O-])n1cc(-c2ccnc(C(F)(F)F)c2)cn1 (single isomer, unassigned) [Example P404]
28 | 0.0728 | COCCOC(=O)Nc1ccc(-c2cnn(C(CC3CC3)c3ccc(-c4c(-n5cnnn5)ccc(Cl)c4F)c[n+]3[O-])c2)cc1 (stereo not drawn) [Example P141]
29 | 0.151 | [O-][n+]1cc(-c2c(-n3cc(Cl)nn3)ccc(Cl)c2F)ccc1[C@@H](Cn1cccn1)n1cc(-c2cnnn2C(F)F)cn1 [Example P685]
30 | 0.0819 | O=c1ccccn1CC(c1ccc(-c2c(-n3cnnn3)ccc(Cl)c2F)c[n+]1[O-])n1cc(-c2ccnc(C(F)(F)F)c2)cn1 (stereo not drawn) [Example P358]
31 | 0.549 | [2H]C([2H])([2H])OC([2H])([2H])CC(c1ccc(-c2c(-n3cc(C(F)(F)F)nn3)ccc(Cl)c2F)c[n+]1[O-])n1cc(-c2ncnn2C)cn1 (single isomer, unassigned) [Example P864]
32 | 0.753 | CCC(c1cc(OC)c(-c2cc(Cl)ccc2C#N)c[n+]1[O-])n1cc(-c2ncnn2C(F)F)cn1 (stereo not drawn) [Example Q54]
33 | 0.0131 | COc1cc(C(CC2CC2)n2cc(-c3sc(C(N)=O)cc3C)cn2)[n+]([O-])cc1-c1cc(Cl)ccc1-n1cc(C(F)(F)F)nn1 (single isomer, unassigned) [Example P958]
34 | 0.0299 | [O-][n+]1cc(-c2c(-n3cnnn3)ccc(Cl)c2F)ccc1C(C(O)c1ccccc1)n1cc(-c2ccnn2C(F)F)cn1 (single isomer, unassigned) [Example P713]
35 | 0.0028 | COCc1ccn(CC(c2ccc(-c3c(-n4cnnn4)ccc(Cl)c3F)c[n+]2[O-])n2cc(-c3ccc(N)nc3F)cn2)n1 (stereo not drawn) [Example P492]
36 | 0.0549 | [O-][n+]1cc(-c2c(-n3cnnn3)ccc(Cl)c2F)ccc1[C@@H](CCOC(F)F)n1cc(-c2cnn(C(F)F)n2)cn1 [Example P674]
37 | 0.0033 | COC(=O)Nc1ccc(-c2cnn(C(Cc3ccn(C)n3)c3ccc(-c4c(-n5cnnn5)ccc(Cl)c4F)c[n+]3[O-])c2)cc1 (single isomer, unassigned) [Example P330]
38 | 0.83 | Cn1ncc(C[C@@H](c2ccc(-c3c(-n4cc(Cl)nn4)ccc(Cl)c3F)c[n+]2[O-])n2cc(-c3ccnc(C(F)(F)F)c3)cn2)n1 [Example P715]
39 | 0.0301 | O=C1CCCN1CC(c1ccc(-c2c(-n3cnnn3)ccc(Cl)c2F)c[n+]1[O-])n1cc(-c2cc[n+]([O-])c(C(F)F)c2)cn1 (stereo not drawn) [Example P365]
40 | 0.0132 | Cc1cc(-c2cnn(C(Cn3cc(F)cn3)c3ccc(-c4c(-n5cnnn5)ccc(Cl)c4F)c[n+]3[O-])c2)ccn1 (stereo not drawn) [Example P474]
41 | 0.0047 | NC(=O)c1ccnn1CC(c1ccc(-c2c(C(F)F)ccc(Cl)c2F)c[n+]1[O-])n1cc(-c2ccnc(C(F)(F)F)c2)cn1 (single isomer, unassigned) [Example Q27]
42 | 0.0116 | O=C(O)c1ccc(-c2cnn([C@H](CCOC(F)F)c3ccc(-c4c(-n5cc(C(F)(F)F)nn5)ccc(Cl)c4F)c[n+]3[O-])c2)cc1 [Example P858]
43 | 0.0385 | CCC(c1cc(OC)c(-c2cc(Cl)ccc2-n2cc(C(F)(F)F)nn2)c[n+]1[O-])n1cc(-c2ncnn2C(F)F)cn1 (single isomer, unassigned) [Example P923]
44 | 0.397 | NC(=O)c1ccc(-c2cnn(C(CN3CCCC3=O)c3ccc(-c4c(-n5cc(C(F)(F)F)nn5)ccc(Cl)c4F)c[n+]3[O-])c2)cc1F (single isomer, unassigned) [Example P936]
45 | 0.0362 | [O-][n+]1cc(-c2c(-n3cnnn3)ccc(Cl)c2F)ccc1C(Cn1cc(F)cn1)n1cc(-c2ccnc(C(F)(F)F)n2)cn1 (stereo not drawn) [Example P469]
46 | 0.0688 | [2H]C([2H])(C[C@H](c1ccc(-c2c(-n3cc(C(F)(F)F)nn3)ccc(Cl)c2F)c[n+]1[O-])n1cc(-c2ncnn2C)cn1)OC(F)F [Example P820]
47 | 0.475 | O=C(O)c1ccc(-c2cnn(C(CC3OCCc4ccccc43)c3ccc(-c4cc(Cl)ccc4-n4cnnn4)c[n+]3[O-])c2)cc1 (stereo not drawn) [Example P128]
48 | 0.775 | NC(=O)C1CC1CC(c1ccc(-c2c(-n3cnnn3)ccc(Cl)c2F)c[n+]1[O-])n1cc(-c2cc[n+]([O-])cc2)cn1 (single isomer, unassigned) [Example P282]
